Test results taken from the supplement of paper PMC10307832.

Key:
Experiment in all cases: relative viability (nuclei count vs DMSO), 5 days (fraction); higher = more cells survive
[1] = compound: C[C@@H](Oc1cc(-c2cnn(C3CCNCC3)c2)cnc1N)c1c(Cl)ccc(F)c1Cl [Crizotinib] + O=C(c1cc(Cc2n[nH]c(=O)c3ccccc23)ccc1F)N1CCN(C(=O)C2CC2)CC1 [Olaparib] (partner 8 µM)
Outline: (§1)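 Lung cancer cell lines were seeded in 1536-well plates and dosed by pin tool the next day, with either a single drug or a fixed anchor-drug dose combined with five library-drug doses (not always all listed) spaced in √10 steps. Five days later, one step fixed the cells and stained their nuclei (final 0.05% Triton X-100, 1% formaldehyde, 1 ug/ml Hoechst), and nuclei were counted on 4× images. Relative viability is the nuclei count in treated wells divided by the count in vehicle wells, and each value is the median of duplicate plates.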

[2] = compound: O=C(c1cc(Cc2n[nH]c(=O)c3ccccc23)ccc1F)N1CCN(C(=O)C2CC2)CC1 [Olaparib] + CC(C)C[C@H](NC(=O)[C@H](Cc1ccccc1)NC(=O)c1cnccn1)B(O)O [Bortezomib] (partner 0.002 µM)
Outline: as §1

[3] = compound: C[C@@H](Oc1cc(-c2cnn(C3CCNCC3)c2)cnc1N)c1c(Cl)ccc(F)c1Cl [Crizotinib] + NC(=O)Nc1cc(-c2cccc(F)c2)sc1C(=O)N[C@H]1CCCNC1 [AZD7762] (partner 0.2 µM)
Outline: as §1

[4] = compound: O=C(c1cc(Cc2n[nH]c(=O)c3ccccc23)ccc1F)N1CCN(C(=O)C2CC2)CC1 [Olaparib] + Nc1nc2[nH]cc(CCc3ccc(C(=O)N[C@@H](CCC(=O)O)C(=O)O)cc3)c2c(=O)[nH]1 [Pemetrexed] (partner 0.2 µM)
Outline: as §1

Cell Line: EBC-1
- relative viability ([1]; first compound 0.01 µM): 0.563
- relative viability ([1]; first compound 0.03162 µM): 0.664
- relative viability ([1]; first compound 0.1 µM): 0.643
- relative viability ([1]; first compound 0.3162 µM): 0.182
- relative viability ([1]; first compound 1 µM): 0.154
- relative viability ([2]; first compound 0.08 µM): 0.654
- relative viability ([2]; first compound 0.253 µM): 0.541
- relative viability ([2]; first compound 2.53 µM): 0.523
- relative viability ([2]; first compound 8 µM): 0.472

Cell Line: EKVX
- relative viability ([1]; first compound 0.01 µM): 0.754
- relative viability ([1]; first compound 0.03162 µM): 0.922
- relative viability ([1]; first compound 0.1 µM): 0.866
- relative viability ([1]; first compound 0.3162 µM): 0.777
- relative viability ([1]; first compound 1 µM): 0.793
- relative viability ([2]; first compound 0.08 µM): 1.42
- relative viability ([2]; first compound 0.253 µM): 0.987
- relative viability ([2]; first compound 2.53 µM): 0.995
- relative viability ([2]; first compound 8 µM): 0.994
- relative viability ([3]; first compound 0.01 µM): 0.67
- relative viability ([3]; first compound 0.03162 µM): 0.742
- relative viability ([3]; first compound 0.1 µM): 0.647
- relative viability ([3]; first compound 0.3162 µM): 0.685
- relative viability ([3]; first compound 1 µM): 0.726
- relative viability ([4]; first compound 0.08 µM): 0.425
- relative viability ([4]; first compound 0.253 µM): 0.401
- relative viability ([4]; first compound 2.53 µM): 0.418
- relative viability ([4]; first compound 8 µM): 0.365

Cell Line: EMC-BAC-2
- relative viability ([1]; first compound 0.01 µM): 0.501
- relative viability ([1]; first compound 0.03162 µM): 0.489
- relative viability ([1]; first compound 0.1 µM): 0.499
- relative viability ([1]; first compound 1 µM): 0.474
- relative viability ([2]; first compound 0.08 µM): 1.09
- relative viability ([2]; first compound 0.253 µM): 1.04
- relative viability ([2]; first compound 2.53 µM): 1.07
- relative viability ([2]; first compound 8 µM): 0.967
- relative viability ([3]; first compound 0.01 µM): 1.07
- relative viability ([3]; first compound 0.03162 µM): 1.1
- relative viability ([3]; first compound 0.1 µM): 1.05
- relative viability ([3]; first compound 1 µM): 1.08
- relative viability ([4]; first compound 0.08 µM): 0.473
- relative viability ([4]; first compound 0.253 µM): 0.478
- relative viability ([4]; first compound 2.53 µM): 0.472
- relative viability ([4]; first compound 8 µM): 0.491

Cell Line: EPLC-272H
- relative viability ([1]; first compound 0.01 µM): 0.624
- relative viability ([1]; first compound 0.03162 µM): 0.729
- relative viability ([1]; first compound 0.1 µM): 0.805
- relative viability ([1]; first compound 0.3162 µM): 0.974
- relative viability ([1]; first compound 1 µM): 0.837
- relative viability ([2]; first compound 0.08 µM): 1.1
- relative viability ([2]; first compound 0.253 µM): 0.819
- relative viability ([2]; first compound 2.53 µM): 0.965
- relative viability ([2]; first compound 8 µM): 0.848
- relative viability ([3]; first compound 0.01 µM): 0.209
- relative viability ([3]; first compound 0.03162 µM): 0.19
- relative viability ([3]; first compound 0.1 µM): 0.263
- relative viability ([3]; first compound 1 µM): 0.35
- relative viability ([4]; first compound 0.08 µM): 0.316
- relative viability ([4]; first compound 0.253 µM): 0.312
- relative viability ([4]; first compound 2.53 µM): 0.345
- relative viability ([4]; first compound 8 µM): 0.357

Cell Line: H3255
- relative viability ([1]; first compound 0.01 µM): 0.565
- relative viability ([1]; first compound 0.03162 µM): 0.56
- relative viability ([1]; first compound 0.1 µM): 0.575
- relative viability ([1]; first compound 0.3162 µM): 0.518
- relative viability ([1]; first compound 1 µM): 0.627
- relative viability ([2]; first compound 0.08 µM): 0.935
- relative viability ([2]; first compound 0.253 µM): 0.728
- relative viability ([2]; first compound 2.53 µM): 0.703
- relative viability ([2]; first compound 8 µM): 0.728
- relative viability ([3]; first compound 0.01 µM): 0.833
- relative viability ([3]; first compound 0.03162 µM): 0.88
- relative viability ([3]; first compound 0.1 µM): 0.819
- relative viability ([3]; first compound 1 µM): 0.923
- relative viability ([4]; first compound 0.08 µM): 0.598
- relative viability ([4]; first compound 0.253 µM): 0.58
- relative viability ([4]; first compound 2.53 µM): 0.577
- relative viability ([4]; first compound 8 µM): 0.597

Cell Line: IA-LM
- relative viability ([1]; first compound 0.01 µM): 0.797
- relative viability ([1]; first compound 0.03162 µM): 0.844
- relative viability ([1]; first compound 0.1 µM): 0.821
- relative viability ([1]; first compound 0.3162 µM): 0.691
- relative viability ([1]; first compound 1 µM): 0.73
- relative viability ([2]; first compound 0.08 µM): 0.743
- relative viability ([2]; first compound 0.253 µM): 0.739
- relative viability ([2]; first compound 2.53 µM): 0.745
- relative viability ([2]; first compound 8 µM): 0.659

Cell Line: LK-2
- relative viability ([1]; first compound 0.01 µM): 0.678
- relative viability ([1]; first compound 0.03162 µM): 0.638
- relative viability ([1]; first compound 0.1 µM): 0.87
- relative viability ([1]; first compound 0.3162 µM): 0.461
- relative viability ([1]; first compound 1 µM): 0.753
- relative viability ([3]; first compound 0.01 µM): 0.533
- relative viability ([3]; first compound 0.03162 µM): 0.293
- relative viability ([3]; first compound 0.1 µM): 0.341
- relative viability ([3]; first compound 0.3162 µM): 0.204
- relative viability ([3]; first compound 1 µM): 0.398
- relative viability ([4]; first compound 0.08 µM): 0.298
- relative viability ([4]; first compound 0.253 µM): 0.304
- relative viability ([4]; first compound 2.53 µM): 0.257
- relative viability ([4]; first compound 8 µM): 0.327

Cell Line: NCI-H358
- relative viability ([1]; first compound 0.01 µM): 0.634
- relative viability ([1]; first compound 0.03162 µM): 0.599
- relative viability ([1]; first compound 0.1 µM): 0.54
- relative viability ([1]; first compound 0.3162 µM): 0.561
- relative viability ([1]; first compound 1 µM): 0.582
- relative viability ([3]; first compound 0.03162 µM): 0.533
- relative viability ([3]; first compound 0.1 µM): 0.469
- relative viability ([3]; first compound 0.3162 µM): 0.458
- relative viability ([3]; first compound 1 µM): 0.492
- relative viability ([4]; first compound 0.08 µM): 0.159
- relative viability ([4]; first compound 0.253 µM): 0.172
- relative viability ([4]; first compound 2.53 µM): 0.176
- relative viability ([4]; first compound 8 µM): 0.152

Cell Line: NCI-H520
- relative viability ([1]; first compound 0.01 µM): 0.285
- relative viability ([1]; first compound 0.03162 µM): 0.35
- relative viability ([1]; first compound 0.1 µM): 0.408
- relative viability ([1]; first compound 0.3162 µM): 0.301
- relative viability ([1]; first compound 1 µM): 0.349
- relative viability ([2]; first compound 0.08 µM): 0.788
- relative viability ([2]; first compound 0.253 µM): 0.336
- relative viability ([2]; first compound 2.53 µM): 0.671
- relative viability ([2]; first compound 8 µM): 0.209
- relative viability ([4]; first compound 0.08 µM): 0.866
- relative viability ([4]; first compound 0.253 µM): 0.646
- relative viability ([4]; first compound 2.53 µM): 0.604
- relative viability ([4]; first compound 8 µM): 0.458
